For data set [1] the following is noted: cited from earlier work.
The test system of data set [2] is E. coli K12. Put plainly: Attached cells challenge test, Romaine. Format: cell-based.
Data set [3] relates to Lactobacillus plantarum 14917. Put plainly: Suspended Cells Challenge Test at 20 s residence time with no surfactant. Format: cell-based. As to conditions: Lactic Acid 0 ppm. As to the method:
The experimental treatment groups were tap water, chlorinated water, a FE sanitizer wash water (FE, FE sanitizer, a solution of peroxyacetic acid and lactic acid, as further specified in a given experiment).
The experimental protocol was as follows: • 1. Transfer 1.00 mL of a ˜10^8cfu/g Lactobacillus plantarum (ATCC 14917) stock culture into a test tube containing 9.00 mL of treatment test solution • 2. Vortex the mixture for 15 s • 3. Stop the reaction by transferring 1 mL of the treated samples to 9 mL of Butterfield Phosphate Buffer • 4. Enumerate viable residual cells through serial dilutions and spread plating with 1-mL transfers • 5. […] Repeat Steps 1 to 5 two more times • 7. Repeat Steps 1 to 6 with flume water • 8. Repeat Steps 1 to 6 with chlorinated water • 9. Repeat Steps 1 to 8 with various levels of FE • 10. Repeat Steps 1 to 8 with various levels of lactic acid • 11. Repeat Steps 1 to 8 with various levels of peroxyacetic acid • 12. Repeat Steps 1 to 11 with Listeria innocua (ATCC33090)
Estimation of Log Reductions • 1. Log […] is a measure of the percent of microorganisms that are inactivated during the disinfection process and is defined as Log Inactivation=Log10 (No/NT) where No is the initial influent concentration of viable microorganisms; NT is the concentration of surviving microorganisms. As M cfu/g=microbial population of stock culture; W cfu/g=microbial population in solution of “Water Treatment” and X cfu/g=microbial population in solution of “X Treatment,” the Log reduction caused by “Treatment X”=Log (w/x)

Data set [4] relates to indigenous microorganisms (Aerobic Plate Counts). Put plainly: Reduction of indigenous microorganisms on Romaine, commercial scale test. Format: cell-based. As to conditions: 73-84 ppm peroxyacetic acid, no lactic acid. As to the method:
(§1) These experiments evaluated the consumption or depletion of peroxyacetic acid when used to wash produce.
(§2) Treatments: chlorinated water, peroxyacetic acid wash water, and FE sanitizer wash water
(§3) Temperature: 38 to 40° F.
(§4) Produce: 1.5″×2″ diced Romaine lettuce
A. Determination of the amount of Romaine Lettuce that could deplete 600 gallons of peroxyacetic acid wash water. • 1. Perform full sanitization on the Pilot Line System. • 2. Fill the 2nd flume tank, 2″ reservoir, and 2″ filtering tank with tap water. • 3. Recycle the water through the system until the water in the system is being cooled down to 40° F. • 4. Calibrate the Prominent System and use the Prominent System to monitor the concentration of PAA in the wash water. • 5. Add the PAA to the 2nd filtering tank until the target processing limit is reached. • 6. Dice the Romaine Lettuce via the translicer. • 7. Collect the 2″33 2″ diced Romaine in totes. • 8. Record the weight of each tote prior to transferring it to the 2nd flume. • 9. Collect three untreated bags of Romaine Lettuce from each bin (1 top, 1 middle, and 1 bottom). • 10. Collect three treated bags of Romaine Lettuce at the end of F2 (1 beginning, 1 middle, and 1 end of the bin). • 11. Place white totes at the bottom of the locations with water spill. Return the spilt water back into the flume tank as needed. • 12. […]

The test system of data set [5] is E. coli K12. Put plainly: Attached cells challenge test, Spinach. The data set is classed as cell-based. As to conditions: LA 0.0%.
The conditions of data set [6]: 40° C.; cited from earlier work.
Data set [7] can be described thus: Depletion of sanitizer wash water by diced Romaine Lettuce, commercial scale test. The data set is classed as physicochemical. As to conditions: 38 to 40 F. As to the method:
as §1, §2, §3, §4
A. Determination of the amount of Romaine Lettuce that could deplete 600 gallons of peroxyacetic acid wash water. • 1. Perform full sanitization on the Pilot Line System. • 2. Fill the 2nd flume tank, 2″ reservoir, and 2″ filtering tank with tap water. • 3. Recycle the water through the system until the water in the system is being cooled down to 40° F. • 4. Calibrate the Prominent System and use the Prominent System to monitor the concentration of PAA in the wash water. • 5. Add the PAA to the 2nd filtering tank until the target processing limit is reached. • 6. Dice the Romaine Lettuce via the translicer. • 7. Collect the 2″33 2″ diced Romaine in totes. • 8. Record the weight of each tote prior to transferring it to the 2nd flume. • 9. Collect three untreated bags of Romaine Lettuce from each bin (1 top, 1 middle, and 1 bottom). • 10. Collect three treated bags of Romaine Lettuce at the end of F2 (1 beginning, 1 middle, and 1 end of the bin). • 11. Place white totes at the bottom of the locations with water spill. Return the spilt water back into the flume tank as needed. • 12. Place white totes at the bottom outlets of the centrifuge to collect liquid that would be spin off from the leaves. Return the collected water back into the flume tank as needed. • 13. Repeat Steps ‘e’ to ‘k’ for the rest of the bins till the FE concentrations fall below the lowest processing limits. • 14. Enumerate the microbial population (APC and Yeast and mold) on the collected samples.
B. Determination of the Amount of Romaine Lettuce that Could Deplete 600 gallons of FE Wash Water • 1. Perform full sanitization on the Pilot Line System. • 2. Fill the flume tank, 2″ flume tank, 1st reservoir, 2nd reservoir, 1st filtering tank, and 2nd filtering tank with tap water. • 3. Recycle the water through the system until the water in the system is being cooled down to 40° F. • 4. Switch on the by-passes for the 1st and 2″ flume tank systems so that water would not be going through the filtering systems but only recycling from the flume tank to its associate reservoir continuously. • 5. Add the chemical ingredients to both tank until the target processing limit is reached. • 6. Verify the concentration of FE by the probe of the Prominent Monitoring System at the 1st flume tank (F1), 1^St Reservoir (R1), 2nd Flume tank (F2), and the 2nd Reservoir (R2). • 7. Collect water samples from F1 and F2. • 8. Assemble the Romaine Lettuce Bins next to the dumpster. • 9. Transfer whole Romaine Lettuce leaves from the bin to the conveyor. • 10. Ensure that the lid above the F1 is closed. Turn the “ON/OFF” switch of the translicer to “ON”. • 11. Turn the conveyor for transferring leaves into the translicer to “ON”. • 12. Ensure that the chopped Romaine are delivered evenly into the flume tank without aggregation and clumping. • 13. Collect three untreated bags of Romaine Lettuce from each bin (1 top, 1 middle, and 1 bottom). • 14. Collect three treated bags of Romaine Lettuce at the end of F2 (1 beginning, 1 middle, and 1 end of the bin). • 15. Verify the pH, temperature, and the concentration of FE at the 1st flume tank (F1), 1st Reservoir (R1), 2nd Flume tank (F2), and the 2nd Reservoir (R2) before and after processing a bin. • 16. Place white totes at the bottom of the locations with water spill. Return the spilt water back into the flume tank as needed. • 17. Place white totes at the bottom outlets of the centrifuge to collect liquid that would be spin off from the leaves. Return the collected water back into the flume tank as needed. • 18. Repeat Steps ‘e’ to ‘o’ for the rest of the bins till the FE concentrations fall below the lowest processing limits. • 19. […]

[8] abbreviates: 600 gallons, Diced Romaine Lettuce.
[9] abbreviates: Cumulative Wt. of Diced Romaine added 0.0 lb, 600 gallons.
The mark [10] stands for this setting: Cumulative Wt. of Diced Romaine added 55.2 lb, 600 gallons.
[11] abbreviates: Cumulative Wt. of Diced Romaine added 114.9 lb, 600 gallons.
Where [12] appears, read: Cumulative Wt. of Diced Romaine added 157.2 lb, 600 gallons.
Setting [13] is: Cumulative Wt. of Diced Romaine added 207.7 lb, 600 gallons.
[14] abbreviates: Cumulative Wt. of Diced Romaine added 272.9 lb, 600 gallons.
Setting [15] is: Cumulative Wt. of Diced Romaine added 325.8 lb, 600 gallons.
[16] abbreviates: Cumulative Wt. of Diced Romaine added 371.3 lb, 600 gallons.
The mark [17] stands for this setting: Cumulative Wt. of Diced Romaine added 424.7 lb, 600 gallons.
The mark [18] stands for this setting: Cumulative Wt. of Diced Romaine added 502.6 lb, 600 gallons.
[19] abbreviates: Cumulative Wt. of Diced Romaine added 565.0 lb, 600 gallons.
Setting [20] is: Cumulative Wt. of Diced Romaine added 629.0 lb, 600 gallons.
Where [21] appears, read: Cumulative Wt. of Diced Romaine added 697.1 lb, 600 gallons.
[22] abbreviates: Cumulative Wt. of Diced Romaine added 762.7 lb, 600 gallons.
The mark [23] stands for this setting: Cumulative Wt. of Diced Romaine added 826.6 lb, 600 gallons.
[24] abbreviates: Cumulative Wt. of Diced Romaine added 896.2 lb, 600 gallons.
Setting [25] is: Cumulative Wt. of Diced Romaine added 949.9 lb, 600 gallons.

Structures are written as SMILES.

In the case of `[O][Cl+][O-]` [Chlorine Dioxide], in data set [1], the “Oxidation Capacity” value is listed as 1.57 eV.

Consider `CC(O)C(=O)O` (stereo not shown) [Lactic acid, lactic acid], for which the “Log reduction, attached cells” value in the data set with E. coli K12 [2] (PAA 0 ppm, LA 1.2%) came to 1.28.

As to `O=[O+][O-]` [Ozone], the “Oxidation Capacity” value in data set [1] is 2.07 eV.

`CC(=O)OO` [Peroxyacetic acid, peroxyacetic acid]: the “log reduction of suspended cells” value in data set [3] (Peroxyacetic acid 70 ppm) was determined as 4.52 log10; in data set [3] (Peroxyacetic acid 75 ppm), 5.59 log10; in data set [3] (Peroxyacetic acid 80 ppm), 5.59 log10. Further, the “Aerobic Plate Counts after wash” value in data set [4] worked out at 2.7 Log cfu/g. Also, the “Log Reduction of indigenous microorganisms” value in data set [4] came out at 0.7 log10. Besides, the “Log reduction, attached cells” value in the data set on E. coli K12 [5] (PAA 70 ppm) is given as 1.33; in the data set on E. coli K12 [5] (PAA 80 ppm), 2.46; in the data set with E. coli K12 [2] (PAA 80 ppm, LA 0.0%), 1.18. Further, the “apparent equilibrium constant Kap” value in data set [6] is reported as “about 2.21”. Also, the “Pounds of Romaine treated” value in data set [7] (600 gallons of sanitizer) worked out at 949.90 lb. The “Depletion of PA” value in data set [7] (600 gallons) is 0.000013 lb of PA per lb of Romaine. In addition, the “Amount of PA (PAA) consumed” value in data set [7] (setting [8]) was 11.7 ppm. Also, the “Pounds of PA (PAA) consumed” value in data set [7] (setting [8]) was 0.01208 lb. In addition, the “PA (ppm) in wash water” value in data set [7] (setting [9]) was found to be 84.8 ppm; in data set [7] (setting [10]), 83.3 ppm; in data set [7] (setting [11]), 82.7 ppm; in data set [7] (setting [12]) it was 82.4 ppm; in data set [7] (setting [13]), 82.0 ppm; in data set [7] (setting [14]), 81.4 ppm. The “PA (ppm) in wash water” value in data set [7] (setting [15]) was 81.0 ppm; in data set [7] (setting [16]), 80.5 ppm; in data set [7] (setting [17]) it was 79.6 ppm; in data set [7] (setting [18]) it was 78.7 ppm; in data set [7] (setting [19]), 78.4 ppm; in data set [7] (setting [20]) it was 77.7 ppm. For the same molecule, the “PA (ppm) in wash water” value in data set [7] (setting [21]) was 76.1 ppm; in data set [7] (setting [22]) it was 75.4 ppm; in data set [7] (setting [23]), 74.7 ppm; in data set [7] (setting [24]), 73.7 ppm; in data set [7] (setting [25]), 73.1 ppm. Also, the “Peroxide (ppm) in wash water” value in data set [7] (setting [9]) is 7.5 ppm; in data set [7] (setting [10]), 7.4 ppm; in data set [7] (setting [11]), 7.4 ppm; in data set [7] (setting [12]), 7.4 ppm; in data set [7] (setting [13]) it was 7.4 ppm; in data set [7] (setting [14]) it was 7.3 ppm. In addition, the “Peroxide (ppm) in wash water” value is recorded as 7.3 ppm in data set [7] (setting [15]); 7.1 ppm in data set [7] (setting [16]); 6.9 ppm in data set [7] (setting [17]); 6.9 ppm in data set [7] (setting [18]); 6.9 ppm in data set [7] (setting [19]); 6.4 ppm in data set [7] (setting [20]). Further, the “Peroxide (ppm) in wash water” value in data set [7] (setting [21]) is 6.4 ppm; in data set [7] (setting [22]), 6.1 ppm; in data set [7] (setting [23]) it was 6.0 ppm; in data set [7] (setting [24]), 6.0 ppm; in data set [7] (setting [25]) it was 6.0 ppm. Also, the “Oxidation Capacity” value in data set [1] is 1.81 eV.

As for `OCl` [Sodium hypochlorite (Chlorine bleach), Sodium hypochlorite], in data set [1], the “Oxidation Capacity” value is 1.36 eV.
